From patent publication US6984493B1, “Method for examining the involvement of opioid peptides in prurtis” (Toray Industries, Inc., priority 2000, dated 2006)

System: severe itching
Experimental: One capsule of a κ-opioid agonist 17-cyclopropylmethyl-3, 14β-dihydroxy-4,5α-epoxy-6β-(N-methyl-trans-3-(3-furyl)acrylamide) morphinan hydrochloride capsule (10 μg/body) was administered to each of the selected patients. […] To quantitatively determine the severity of itching, visual analogue scale (VAS) was employed, in which the severity of itching was determined on a straight line of 0 to 100 mm where no itching was rated as “0” and the supposable most severe itching was rated as “100”.

CN(C(=O)/C=C/c1ccoc1)[C@@H]1CC[C@@]2(O)[C@H]3Cc4ccc(O)c5c4[C@@]2(CCN3CC2CC2)[C@H]1O5.Cl (relative stereo) [17-cyclopropylmethyl-3, 14β-dihydroxy-4,5α-epoxy-6β-(N-methyl-trans-3-(3-furyl)acrylamide) morphinan hydrochloride]
visual analogue scale (VAS) of severity of itching, mean of the four subjects (after 4 to 24 hours from the administration, one capsule 10 μg/body, four patients with severe itching, VAS 75 mm before administration, scale 0 to 100 mm): 0 mm | relief of itching (after two hours from the administration, all administered patients (four), one capsule 10 μg/body): itching was relieved | antipruritic effect on administration (summary statement referring to Example 2) (as shown in Example 2): apparent antipruritic effect | duration of antipruritic effect (continued until) (time from the administration, all administered patients (four), one capsule 10 μg/body): 24 h
